Test results taken from PMC8591201, “Anti-Tumor Activity of AZD4547 Against NTRK1 Fusion Positive Cancer Cells Through Inhibition of NTRKs” (Frontiers in Oncology, 2021).

Columns and labels:
Test in all cases: cells
Set-up in all cases: Anti-proliferation, 10-point dose response, CellTiter-Glo luminescence (MTT stated for KM12(Luc)), GI50 fitted in Prism
CAPAN-1 = details: Homo sapiens, CAPAN-1, 72 h, read-out: GI50 (µM) a
NCI-H1299 = details: Homo sapiens, NCI-H1299, 72 h, read-out: GI50 (µM) a
OCI-AML3 = details: Homo sapiens, OCI-AML-3, 72 h, read-out: GI50 (µM) a
DU-145 = details: Homo sapiens, DU-145, 72 h, read-out: GI50 (µM) a
AGS = details: Homo sapiens, AGS, 72 h, read-out: GI50 (µM) a
MIA-PaCa-2 = details: Homo sapiens, MIA PaCa-2, 72 h, read-out: GI50 (µM) a
HEC1A = details: Homo sapiens, HEC-1-A, 72 h, read-out: GI50 (µM) a
NCI-H23 = details: Homo sapiens, NCI-H23, 72 h, read-out: GI50 (µM) a
RT-112 = details: Homo sapiens, RT-112, 72 h, read-out: GI50 (µM) a
PANC-1 = details: Homo sapiens, PANC-1, 72 h, read-out: GI50 (µM) a
SW620 = details: Homo sapiens, SW-620, 72 h, read-out: GI50 (µM) a
HCT15 = details: Homo sapiens, HCT-15, 72 h, read-out: GI50 (µM) a

For `COc1cc(CCc2cc(NC(=O)c3ccc(N4C[C@@H](C)N[C@@H](C)C4)cc3)n[nH]2)cc(OC)c1` [AZD4547], which GI50 (CAPAN-1) is on record?
The GI50 was 17.5 µM.

And the GI50 (NCI-H1299)?
Its GI50 is 60.6 µM.

And the GI50 (OCI-AML3)?
Its GI50 is 6.75 µM.

What about the GI50 (DU-145) of the same molecule?
Its GI50 is 10.7 µM.

And the GI50 (AGS)?
Its GI50 is 58.1 µM.

What about the GI50 (MIA-PaCa-2) of the same molecule?
The GI50 was 12.2 µM.

What about the GI50 (HEC1A) of the same molecule?
The GI50 was 35.6 µM.

What about the GI50 (NCI-H23) of the same molecule?
Its GI50 is 10.8 µM.

What about the GI50 (RT-112) of the same molecule?
The GI50 was 0.42 µM.

And the GI50 (PANC-1)?
Its GI50 is 8.65 µM.

What about the GI50 (SW620) of the same molecule?
The GI50 was 11 µM.

And the GI50 (HCT15)?
Its GI50 is 15.8 µM.
